# Tested on: MV4-11 human acute myeloid leukemia cells
# Assay: Cancer cell viability assay, propidium iodide staining (FACS)
# Assay type: cell-based
# Method: The cancer cells were incubated in cell medium with 1% fetal calf serum (FCS) at a concentration of 2×10^5 cells/well at a final volume of 250 μl in 96-well plate. The tested small molecule was added to the cells at the indicated concentrations. The cells were incubated for 24 hours and the number of dead and viable cells was then evaluated by fluorescence-activated cell sorting (FACS), using propidium iodide (PI) staining. The IC50 of the small molecule-induced cell death was determined using GraphPad Prism software.
# In order to assess the effect of BKT300 on cancer cells viability, the in vitro effect on MV4-11 human acute myeloid leukemia cells was evaluated. The MV4-11 cancer cells were incubated in RPMI cell medium with 1% fetal calf serum (FCS) at a concentration of 2×10^5 cells/well at a final volume of 250 μl in 96-well plate. BKT300 was added to the cells at the indicated concentrations. The cells were incubated for 24 hours and the number of dead and viable cells was then evaluated by fluorescence-activated cell sorting (FACS), using propidium iodide (PI) staining. The IC50 of […] cell death was determined using GraphPad Prism software.
compound,measurement,setting,value
CCCCCc1cc2cc(O)cc(Oc3c(O)cc(O)cc3CCCCC)c2c(=O)o1 [BKT300],Concentration at which cell death of MV4-11 cells is induced (as low as; lowest tested),"BKT300 at 78% purity, 24 hours",≤ 2 µg/mL
same,"Degree of cell death of MV4-11 cells, 98% purity compared with 78% purity","BKT300 at 98% purity, 4.25 μg/ml",considerably greater degree of cell death
same,"Inducing cell death of MV4-11 cells, 98% purity compared with 78% purity","BKT300 at 98% purity, 2.125, 4.25, 8.5 μg/ml",significantly more effective
